According to US8415379B2, “Pyridines” (Hoffmann-La Roche Inc., priority 2009, dated 2013):

Molecular target: T1, GABA A α5 (human receptors of composition α5β3γ2) (Homo sapiens, UniProt P18507+P31644)
T1 construct: expressed in transfected cells; host or cells: HEK293 cells, transiently transfected; membrane homogenates used
Experiment: [3H]flumazenil competition binding assay, human GABA A α5β3γ2 receptors in HEK293 cells
Details: displacement of 0.5 nM [3H]flumazenil, HEK293 membranes, 1 hour at 4° C., means of two determinations, read-out: hKi GABA A α5
Protocol: The affinity of compounds at GABA A receptor subtypes was measured by competition for [^3H]flumazenil (85 Ci/mmol; Roche) binding to HEK293 cells expressing rat (stably transfected) or human (transiently transfected) receptors of composition α1β3γ2, α2β3γ2, α3β3γ2 and α5β3γ2.
Cell pellets were suspended in Krebs-tris buffer (4.8 mM KCl, 1.2 mM CaCl2, 1.2 mM MgCl2, 120 mM NaCl, 15 mM Tris; pH 7.5; binding assay buffer), homogenized by polytron for ca. 20 sec on ice and centrifuged for 60 min at 4° C. (50000 g; Sorvall, rotor: SM24=20000 rpm). The cell pellets were re-suspended in Krebs-tris buffer and homogenized by polytron for ca. 15 sec on ice. Protein was measured (Bradford method, Bio-Rad) and aliquots of 1 mL were prepared and stored at −80° C.
Radioligand binding assays were carried out in a volume of […] (96-well plates) which contained […] of cell membranes, [^3H]flumazenil at a concentration of 1 nM for α1, α2 and α3 subunits and 0.5 nM for α5 subunits and the test compound in the range of […]. Nonspecific binding was defined by 10^−5 M diazepam and typically represented less than 5% of the total binding. Assays were incubated to equilibrium for 1 hour at 4° C. and harvested onto GF/C uni-filters (Packard) by filtration using a Packard harvester and washing with ice-cold wash buffer (50 mM Tris; pH 7.5). After drying, filter-retained radioactivity was detected by liquid scintillation counting. Ki values were calculated using Excel-Fit (Microsoft) and are the means of two determinations.

SMILES | Ki
Cc1onc(-c2ccccc2)c1COc1ccc(C(=O)NN(C)C)nc1 [Example 4, 5-(5-Methyl-3-phenyl-isoxazol-4-ylmethoxy)-pyridine-2-carboxylic acid N′,N′-dimethyl-hydrazide] | 26.5 nM
Cc1onc(-c2ccccn2)c1COc1ccc(C(=O)Nc2cnn(C)c2)nc1 [Example 19, 5-(5-Methyl-3-pyridin-2-yl-isoxazol-4-ylmethoxy)-pyridine-2-carboxylic acid (1-methyl-1H-pyrazol-4-yl)-amide] | 1.7 nM
CC[C@@H](CO)NC(=O)c1ccc(OCc2c(-c3ccccn3)noc2C)cn1 [Example 21, 5-(5-Methyl-3-pyridin-2-yl-isoxazol-4-ylmethoxy)-pyridine-2-carboxylic acid ((S)-1-hydroxymethyl-propyl)-amide] | 4.3 nM
O=C(NN1CCOCC1)c1ccc(OCc2c(-c3ccc(F)cc3)noc2CO)cn1 [Example 39, 5-[3-(4-Fluoro-phenyl)-5-hydroxymethyl-isoxazol-4-ylmethoxy]-pyridine-2-carboxylic acid morpholin-4-ylamide] | 0.8 nM
CCC(CO)NC(=O)c1ccc(OCc2c(-c3ccccn3)noc2C)cn1 (racemic) [Example 20, Rac-5-(5-Methyl-3-pyridin-2-yl-isoxazol-4-ylmethoxy)-pyridine-2-carboxylic acid (1-hydroxymethyl-propyl)-amide] | 8.1 nM
Cc1onc(-c2ccc(F)cn2)c1COc1ccc(C(=O)NN2CCOCC2)nc1 [Example 25, 5-[3-(5-Fluoro-pyridin-2-yl)-5-methyl-isoxazol-4-ylmethoxy]-pyridine-2-carboxylic acid morpholin-4-ylamide] | 3.9 nM
Cc1onc(-c2ccccn2)c1COc1ccc(C(=O)N[C@H]2CCC[C@@H]2O)nc1 [Example 18, 5-(5-Methyl-3-pyridin-2-yl-isoxazol-4-ylmethoxy)-pyridine-2-carboxylic acid ((1S,2S)-2-hydroxy-cyclopentyl)-amide] | 5.6 nM
CC(NC(=O)c1ccc(OCc2c(-c3ccc(F)cc3)noc2CO)cn1)C(F)(F)F (centres unmarked) [Example 32, 5-[3-(4-Fluoro-phenyl)-5-hydroxymethyl-isoxazol-4-ylmethoxy]-pyridine-2-carboxylic acid (2,2,2-trifluoro-1-methyl-ethyl)-amide] | 60.4 nM
Cc1onc(-c2ccccn2)c1COc1ccc(C(=O)NC(C)(C)CO)nc1 [Example 8, 5-(5-Methyl-3-pyridin-2-yl-isoxazol-4-ylmethoxy)-pyridine-2-carboxylic acid (2-hydroxy-1,1-dimethyl-ethyl)-amide] | 22.3 nM
Cc1onc(-c2ccc(F)cn2)c1COc1ccc(C(=O)N2CCS(=O)(=O)CC2)nc1 [Example 26, (1,1-Dioxo-1,6-thiomorpholin-4-yl)-{5-[3-(5-fluoro-pyridin-2-yl)-5-methyl-isoxazol-4-ylmethoxy]-pyridin-2-yl}-methanone] | 36.9 nM
Cc1onc(-c2ccccn2)c1COc1ccc(C(=O)NN2CCOCC2)nc1 [Example 9, 5-(5-Methyl-3-pyridin-2-yl-isoxazol-4-ylmethoxy)-pyridine-2-carboxylic acid morpholin-4-ylamide] | 4.4 nM
Cc1onc(-c2ccccn2)c1COc1ccc(C(=O)N2CCSCC2)nc1 [Example 17, [5-(5-Methyl-3-pyridin-2-yl-isoxazol-4-ylmethoxy)-pyridin-2-yl]-thiomorpholin-4-yl-methanone] | 32.9 nM
Cc1onc(-c2ccccn2)c1COc1ccc(C(=O)N[C@@H](C)C(F)(F)F)nc1 [Example 22, 5-(5-Methyl-3-pyridin-2-yl-isoxazol-4-ylmethoxy)-pyridine-2-carboxylic acid ((S)-2,2,2-trifluoro-1-methyl-ethyl)-amide] | 5.6 nM
O=C(NC1CCOCC1)c1ccc(OCc2c(-c3ccc(F)cc3)noc2CO)cn1 [Example 30, 5-[3-(4-Fluoro-phenyl)-5-hydroxymethyl-isoxazol-4-ylmethoxy]-pyridine-2-carboxylic acid (tetrahydro-pyran-4-yl)-amide] | 30.3 nM
Cc1onc(-c2ccccn2)c1COc1ccc(C(=O)NC(C)C)nc1 [Example 7, 5-(5-Methyl-3-pyridin-2-yl-isoxazol-4-ylmethoxy)-pyridine-2-carboxylic acid isopropyl-amide] | 3.2 nM
Cc1onc(-c2ccc(F)cn2)c1COc1ccc(C(=O)NC(C)(C)CO)nc1 [Example 24, 5-[3-(5-Fluoro-pyridin-2-yl)-5-methyl-isoxazol-4-ylmethoxy]-pyridine-2-carboxylic acid (2-hydroxy-1,1-dimethyl-ethyl)-amide] | 17.5 nM

SMILES | Ki
Cc1onc(-c2ccccc2)c1COc1ccc(C(=O)NN2CCOCC2)nc1 [Example 5, 5-(5-Methyl-3-phenyl-isoxazol-4-ylmethoxy)-pyridine-2-carboxylic acid morpholin-4-ylamide] | 17 nM
Cc1onc(-c2ccccn2)c1COc1ccc(C(=O)NCCO)nc1 [Example 14, 5-(5-Methyl-3-pyridin-2-yl-isoxazol-4-ylmethoxy)-pyridine-2-carboxylic acid (2-hydroxy-ethyl)-amide] | 7.8 nM
Cc1onc(-c2ccccc2)c1COc1ccc(C(=O)NC(C)C)nc1 [Example 2, 5-(5-Methyl-3-phenyl-isoxazol-4-ylmethoxy)-pyridine-2-carboxylic acid isopropylamide] | 8.9 nM
Cc1onc(-c2ccccc2)c1COc1ccc(C(=O)NCCO)nc1 [Example 1, 5-(5-Methyl-3-phenyl-isoxazol-4-ylmethoxy)-pyridine-2-carboxylic acid (2-hydroxy-ethyl)-amide] | 15.4 nM
O=C(NN1CCCC1)c1ccc(OCc2c(-c3ccc(F)cc3)noc2CO)cn1 [Example 38, 5-[3-(4-Fluoro-phenyl)-5-hydroxymethyl-isoxazol-4-ylmethoxy]-pyridine-2-carboxylic acid pyrrolidin-1-ylamide] | 3.4 nM
Cc1onc(-c2ccccn2)c1COc1ccc(C(=O)NCC2CC2)nc1 [Example 12, 5-(5-Methyl-3-pyridin-2-yl-isoxazol-4-ylmethoxy)-pyridine-2-carboxylic acid cyclopropyl-methyl-amide] | 7.1 nM
CC(C)(C)NC(=O)c1ccc(OCc2c(-c3ccc(F)cc3)noc2CO)cn1 [Example 36, 5-[3-(4-Fluoro-phenyl)-5-hydroxymethyl-isoxazol-4-ylmethoxy]-pyridine-2-carboxylic acid tert-butylamide] | 74.2 nM
Cc1onc(-c2ccccn2)c1COc1ccc(C(=O)NCC(F)(F)F)nc1 [Example 13, 5-(5-Methyl-3-pyridin-2-yl-isoxazol-4-ylmethoxy)-pyridine-2-carboxylic acid (2,2,2-trifluoro-ethyl)-amide] | 4.6 nM
CC(C)NC(=O)c1ccc(OCc2c(-c3ccc(F)cc3)noc2CO)cn1 [Example 29, 5-[3-(4-Fluoro-phenyl)-5-hydroxymethyl-isoxazol-4-ylmethoxy]-pyridine-2-carboxylic acid isopropylamide] | 70.2 nM
CC[C@@H](CO)NC(=O)c1ccc(OCc2c(-c3ccc(F)cc3)noc2CO)cn1 [Example 34, 5-[3-(4-Fluoro-phenyl)-5-hydroxymethyl-isoxazol-4-ylmethoxy]-pyridine-2-carboxylic acid ((S)-1-hydroxymethyl-propyl)-amide] | 8.3 nM
Cc1onc(-c2ccc(F)cn2)c1COc1ccc(C(=O)NCC(F)(F)F)nc1 [Example 28, 5-[3-(5-Fluoro-pyridin-2-yl)-5-methyl-isoxazol-4-ylmethoxy]-pyridine-2-carboxylic acid (2,2,2-trifluoro-ethyl)-amide] | 4.2 nM
CNC(=O)c1ccc(OCc2c(-c3ccccn3)noc2C)cn1 [Example 16, 5-(5-Methyl-3-pyridin-2-yl-isoxazol-4-ylmethoxy)-pyridine-2-carboxylic acid methylamide] | 7.1 nM
O=C(NCC(F)(F)F)c1ccc(OCc2c(-c3ccc(F)cc3)noc2CO)cn1 [Example 33, 5-[3-(4-Fluoro-phenyl)-5-hydroxymethyl-isoxazol-4-ylmethoxy]-pyridine-2-carboxylic acid (2,2,2-trifluoro-ethyl)-amide] | 10.2 nM
CCNC(=O)c1ccc(OCc2c(-c3ccccn3)noc2C)cn1 [Example 15, 5-(5-Methyl-3-pyridin-2-yl-isoxazol-4-ylmethoxy)-pyridine-2-carboxylic acid ethylamide] | 5.8 nM
Cc1onc(-c2ccccn2)c1COc1ccc(C(=O)NC2CCOCC2)nc1 [Example 6, 5-(5-Methyl-3-pyridin-2-yl-isoxazol-4-ylmethoxy)-pyridine-2-carboxylic acid (tetrahydro-pyran-4-yl)-amide] | 4.8 nM
Cc1onc(-c2ccccn2)c1COc1ccc(C(=O)NC2CC2)nc1 [Example 11, 5-(5-Methyl-3-pyridin-2-yl-isoxazol-4-ylmethoxy)-pyridine-2-carboxylic acid cyclopropyl amide] | 3.5 nM
